Drawing on patent US8193373B2, “Therapeutic compounds” (Allergan, Inc., priority 2006, dated 2012), this text covers Ki and EC50 for 1 compound.

Assay [1] deals with T1, EP2 receptor (Homo sapiens, UniProt P43116). As to the kind of experiment: Binding at the EP2 receptor (assays described in WO 2005/044501). An excerpt: (§1) The compound above has the following activity at the EP2 receptor according to the assays described in WO 2005/044501.
Assay [2] concerns the target T1, EP2 receptor. As to the kind of experiment: cAMP assay at the EP2 receptor (assays described in WO 2005/044501). The assay is classed as cell-based.
Source text: as §1

T1 sequence (P43116 whole entry): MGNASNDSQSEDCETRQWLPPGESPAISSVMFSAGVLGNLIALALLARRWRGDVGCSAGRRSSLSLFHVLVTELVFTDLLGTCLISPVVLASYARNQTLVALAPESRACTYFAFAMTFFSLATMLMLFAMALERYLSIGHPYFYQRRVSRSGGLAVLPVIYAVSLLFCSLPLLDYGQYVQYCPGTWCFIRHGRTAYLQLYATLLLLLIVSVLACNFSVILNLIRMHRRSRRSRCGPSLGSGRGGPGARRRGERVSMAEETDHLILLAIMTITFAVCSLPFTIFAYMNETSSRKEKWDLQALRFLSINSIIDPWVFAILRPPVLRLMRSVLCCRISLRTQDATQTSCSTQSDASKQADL

A word on the Ki: it is the dissociation constant of the complex between target and ligand, obtained from inhibition or displacement. Broadly, the EC50 is the concentration needed to bring the measured effect to its halfway point. In the case of `N#C[C@@H]1C[C@@H](O)[C@H](/C=C/CC(O)C2(Cc3ccc(Cl)s3)CCC2)[C@H]1C/C=C\CCCC(=O)O` (stereo partly drawn) [(Z)-7-((1S,2R,3R,5R)-2-((E)-4-(1-((5-chlorothiophen-2-yl)methyl)cyclobutyl)-4-hydroxybut-1-enyl)-5-cyano-3-hydroxycyclopentyl)hept-5-enoic acid], at EP2 receptor [1], the Ki was determined as 116 nM. This compound also returned an EC50 at EP2 receptor [2] of 3 nM.
